Source: ChEMBL document CHEMBL4270538, “Targeting prohibitin with small molecules to promote melanogenesis and apoptosis in melanoma cells” (Eur J Med Chem, 2018)

Assays:
[1] = target: Prohibitin-2 (Homo sapiens) (UniProt Q99623); assay: Induction of PHB2-mediated melanogenesis in human HBL cells assessed as pigmentation at 1 uM after 10 days relative to control; type: cell-based
[2] = target: Prohibitin-2 (Homo sapiens) (UniProt Q99623); assay: Induction of PHB2-mediated melanogenesis in human HBL cells assessed as pigmentation at 10 uM after 10 days relative to control; type: cell-based

Chain of Prohibitin-2 (Homo sapiens) (Q99623 whole entry): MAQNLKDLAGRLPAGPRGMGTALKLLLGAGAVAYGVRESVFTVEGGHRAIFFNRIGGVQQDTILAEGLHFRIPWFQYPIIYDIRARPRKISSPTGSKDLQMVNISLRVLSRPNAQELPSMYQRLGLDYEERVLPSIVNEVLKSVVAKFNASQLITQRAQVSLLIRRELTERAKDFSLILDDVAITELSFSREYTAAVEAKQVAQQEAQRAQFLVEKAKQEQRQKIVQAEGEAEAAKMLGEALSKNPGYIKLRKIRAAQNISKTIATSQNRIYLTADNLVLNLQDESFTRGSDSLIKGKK

**Q.** With `C[C@H](c1ccccc1)N(C)c1nc(NCCN(C)C)nc(Oc2c(F)c(F)c(F)c(F)c2F)n1` as the compound, how does the fold change (FC) [1] read?
**A.** The fold change (FC) was 1.25.

**Q.** What about the fold change (FC) [2] of the same compound?
**A.** The fold change (FC) was 1.53.

**Q.** Which fold change (FC) [1] does the source give for `CNc1nc(NC(C)c2cccc(F)c2)nc(Oc2c(F)c(F)c(F)c(F)c2F)n1` (stereo unspecified) here?
**A.** The fold change (FC) was 1.01.

**Q.** What about the fold change (FC) [2] of the same compound?
**A.** The fold change (FC) was 0.84.

**Q.** For `Fc1cccc(CNc2nc(NCCCc3ccccc3)nc(Oc3c(F)c(F)c(F)c(F)c3F)n2)c1`, which fold change (FC) [1] is on record?
**A.** The fold change (FC) was 1.07.

**Q.** What about the fold change (FC) [2] of the same compound?
**A.** Its fold change (FC) is 1.07.

**Q.** For `CNc1nc(Oc2c(F)c(F)c(F)c(F)c2F)nc(N2CCCc3ccccc3C2)n1`, which fold change (FC) [1] is on record?
**A.** The fold change (FC) was 0.8.

**Q.** And the fold change (FC) [2]?
**A.** The fold change (FC) was 0.86.

**Q.** For `FC1(F)N=C(c2ccc(Cl)cc2)SC1(F)c1ccc(Cl)cc1` (stereo unspecified), which fold change (FC) [1] is on record?
**A.** Its fold change (FC) is 1.51.

**Q.** What about the fold change (FC) [2] of the same compound?
**A.** The fold change (FC) was 1.37.

**Q.** What does the source list for `Fc1cccc(CNc2nc(NCCc3ccccc3)nc(Oc3c(F)c(F)c(F)c(F)c3F)n2)c1`?
**A.** fold change (FC) [1]: 0.9; fold change (FC) [2]: 1.11

**Q.** `CC[C@H](CO)Nc1nc(Oc2c(F)c(F)c(F)c(F)c2F)nc(N(C)[C@@H](C)c2ccccc2)n1` was tested. Which fold change (FC) [1] did it give?
**A.** Its fold change (FC) is 0.96.

**Q.** What about the fold change (FC) [2] of the same compound?
**A.** The fold change (FC) was 0.89.

**Q.** `CNc1nc(NCc2cccc(F)c2)nc(Oc2c(F)c(F)c(F)c(F)c2F)n1` was tested. Which fold change (FC) [1] did it give?
**A.** Its fold change (FC) is 0.89.

**Q.** And the fold change (FC) [2]?
**A.** Its fold change (FC) is 0.84.

**Q.** What does the source list for `CC[C@H](CO)Nc1nc(NC(C)c2cccc(F)c2)nc(Oc2c(F)c(F)c(F)c(F)c2F)n1` (stereo partly specified)?
**A.** fold change (FC) [1]: 0.78; fold change (FC) [2]: 0.68

**Q.** For `CN(C)CCNc1nc(NCc2cccc(F)c2)nc(Oc2c(F)c(F)c(F)c(F)c2F)n1`, which fold change (FC) [1] is on record?
**A.** Its fold change (FC) is 0.98.

**Q.** And the fold change (FC) [2]?
**A.** Its fold change (FC) is 0.59.

**Q.** What does the source list for `CNc1nc(Oc2c(F)c(F)c(F)c(F)c2F)nc(N2CCc3ccccc3C2)n1`?
**A.** fold change (FC) [1]: 0.84; fold change (FC) [2]: 0.87

**Q.** What does the source list for `CNc1nc(NCc2ccccc2)nc(Oc2c(F)c(F)c(F)c(F)c2F)n1`?
**A.** fold change (FC) [1]: 0.9; fold change (FC) [2]: 0.69

**Q.** What does the source list for `CC[C@H](CO)Nc1nc(N[C@H](C)c2ccccc2)nc(Oc2c(F)c(F)c(F)c(F)c2F)n1`?
**A.** fold change (FC) [1]: 0.94; fold change (FC) [2]: 0.83

**Q.** Which fold change (FC) [1] does the source give for `Fc1cccc(CNc2nc(NCCNc3ccccn3)nc(Oc3c(F)c(F)c(F)c(F)c3F)n2)c1` here?
**A.** The fold change (FC) was 0.97.

**Q.** And the fold change (FC) [2]?
**A.** The fold change (FC) was 1.09.

**Q.** How did the fold change (FC) [1] turn out when `Fc1cccc(CNc2nc(NCC3CCCO3)nc(Oc3c(F)c(F)c(F)c(F)c3F)n2)c1` (stereo unspecified) was run?
**A.** Its fold change (FC) is 1.07.

**Q.** What about the fold change (FC) [2] of the same compound?
**A.** Its fold change (FC) is 0.95.

**Q.** For `Fc1cccc(CNc2nc(Oc3c(F)c(F)c(F)c(F)c3F)nc(N3CCCC3)n2)c1`, which fold change (FC) [1] is on record?
**A.** The fold change (FC) was 0.99.

**Q.** And the fold change (FC) [2]?
**A.** The fold change (FC) was 1.08.

**Q.** Which results are given for `Fc1cccc(CNc2nc(Oc3c(F)c(F)c(F)c(F)c3F)nc(N3CCOCC3)n2)c1`?
**A.** fold change (FC) [1]: 0.85; fold change (FC) [2]: 0.93

**Q.** How did the fold change (FC) [1] turn out when `O=C1CCCN1CCCNc1nc(NCc2cccc(F)c2)nc(Oc2c(F)c(F)c(F)c(F)c2F)n1` was run?
**A.** Its fold change (FC) is 0.99.

**Q.** What about the fold change (FC) [2] of the same compound?
**A.** Its fold change (FC) is 1.04.

**Q.** How did the fold change (FC) [1] turn out when `CCC(Nc1nc(NCCN(C)C)nc(Oc2c(F)c(F)c(F)c(F)c2F)n1)c1cccc(F)c1` (stereo unspecified) was run?
**A.** Its fold change (FC) is 0.86.

**Q.** What about the fold change (FC) [2] of the same compound?
**A.** The fold change (FC) was 0.55.

**Q.** `CC(Nc1nc(NCCN(C)C)nc(Oc2c(F)c(F)c(F)c(F)c2F)n1)c1cccc(F)c1` (stereo unspecified) was tested. Which fold change (FC) [1] did it give?
**A.** The fold change (FC) was 0.77.

**Q.** And the fold change (FC) [2]?
**A.** The fold change (FC) was 0.43.

**Q.** Which results are given for `CN1CCN(c2nc(NCc3cccc(F)c3)nc(Oc3c(F)c(F)c(F)c(F)c3F)n2)CC1`?
**A.** fold change (FC) [1]: 0.78; fold change (FC) [2]: 0.65

**Q.** Which results are given for `CN(C)CCCNc1nc(Oc2c(F)c(F)c(F)c(F)c2F)nc(N2CCCc3ccccc3C2)n1`?
**A.** fold change (FC) [1]: 0.96; fold change (FC) [2]: 1.57

**Q.** What does the source list for `C[C@@H](Nc1nc(NCCN(C)C)nc(Oc2c(F)c(F)c(F)c(F)c2F)n1)c1ccccc1`?
**A.** fold change (FC) [1]: 0.78; fold change (FC) [2]: 0.61

**Q.** With `CNc1nc(Oc2c(F)c(F)c(F)c(F)c2F)nc(N(C)[C@@H](C)c2ccccc2)n1` as the compound, how does the fold change (FC) [1] read?
**A.** Its fold change (FC) is 1.01.

**Q.** And the fold change (FC) [2]?
**A.** The fold change (FC) was 0.86.

**Q.** Which results are given for `CC(=O)NCCNc1nc(NCc2cccc(F)c2)nc(Oc2c(F)c(F)c(F)c(F)c2F)n1`?
**A.** fold change (FC) [1]: 0.91; fold change (FC) [2]: 1

**Q.** Which results are given for `CCC(CO)Nc1nc(NCc2cccc(F)c2)nc(Oc2c(F)c(F)c(F)c(F)c2F)n1` (stereo unspecified)?
**A.** fold change (FC) [1]: 1.06; fold change (FC) [2]: 1.39

**Q.** How did the fold change (FC) [1] turn out when `CNc1nc(N[C@H](C)c2ccccc2)nc(Oc2c(F)c(F)c(F)c(F)c2F)n1` was run?
**A.** Its fold change (FC) is 1.16.

**Q.** What about the fold change (FC) [2] of the same compound?
**A.** Its fold change (FC) is 0.89.

**Q.** `CCC(Nc1nc(N[C@H](CC)CO)nc(Oc2c(F)c(F)c(F)c(F)c2F)n1)c1cccc(F)c1` (stereo partly specified) was tested. Which fold change (FC) [1] did it give?
**A.** Its fold change (FC) is 0.95.

**Q.** And the fold change (FC) [2]?
**A.** The fold change (FC) was 0.74.
